Data as given in ChEMBL document CHEMBL2074499, “Cloning and functional expression of a human liver organic cation transporter” (Mol Pharmacol, 1997).

Assays:
[1] = target: T1, Solute carrier family 22 member 1 (Homo sapiens, UniProt O15245); experiment: TP_TRANSPORTER: inhibition of MPP+ uptake in Xenopus laevis oocytes; assay type: functional, cell-based, Oocyte
T1 sequence (O15245 whole entry): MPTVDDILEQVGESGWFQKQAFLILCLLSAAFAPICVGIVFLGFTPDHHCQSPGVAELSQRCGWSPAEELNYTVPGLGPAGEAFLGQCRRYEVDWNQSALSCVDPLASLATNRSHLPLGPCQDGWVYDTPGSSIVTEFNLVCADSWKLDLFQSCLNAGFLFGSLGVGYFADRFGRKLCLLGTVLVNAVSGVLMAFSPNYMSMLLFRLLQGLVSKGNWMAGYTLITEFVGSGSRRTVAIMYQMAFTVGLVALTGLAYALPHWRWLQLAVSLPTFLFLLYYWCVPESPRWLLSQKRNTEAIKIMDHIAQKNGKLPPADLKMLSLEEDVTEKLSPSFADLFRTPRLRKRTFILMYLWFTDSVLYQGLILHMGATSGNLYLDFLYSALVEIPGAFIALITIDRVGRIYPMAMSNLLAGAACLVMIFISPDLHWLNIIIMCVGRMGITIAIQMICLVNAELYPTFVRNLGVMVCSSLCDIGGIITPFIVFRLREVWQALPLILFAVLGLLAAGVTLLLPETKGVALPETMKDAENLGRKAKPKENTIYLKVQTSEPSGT

[2] = target: T1, Solute carrier family 22 member 1; experiment: TP_TRANSPORTER: inhibition of MPP+ uptake (MPP+: 0.85 uM, Verapamil: 5000 uM) in Xenopus laevis oocytes; assay type: functional, cell-based; details: oocyte
[3] = target: T1, Solute carrier family 22 member 1; experiment: TP_TRANSPORTER: inhibition of MPP+ uptake (MPP+: 0.85 uM, Pancuronium: 1000 uM) in Xenopus laevis oocytes; assay type: functional, cell-based; details: oocyte
[4] = target: T1, Solute carrier family 22 member 1; experiment: TP_TRANSPORTER: inhibition of MPP+ uptake (MPP+: 0.85 uM, NMN: 5000 uM) in Xenopus laevis oocytes; assay type: functional, cell-based; details: oocyte
[5] = target: T1, Solute carrier family 22 member 1; experiment: TP_TRANSPORTER: inhibition of MPP+ uptake (MPP+: 0.85 uM, Quinine: 1000 uM) in Xenopus laevis oocytes; assay type: functional, cell-based; details: oocyte
[6] = target: T1, Solute carrier family 22 member 1; experiment: TP_TRANSPORTER: inhibition of MPP+ uptake (MPP+: 0.85 uM, Procainamide: 5000 uM) in Xenopus laevis oocytes; assay type: functional, cell-based; details: oocyte
[7] = target: T1, Solute carrier family 22 member 1; experiment: TP_TRANSPORTER: inhibition of MPP+ uptake (MPP+: 0.15 uM, Inosine: 1000 uM) in Xenopus laevis oocytes; assay type: functional, cell-based; details: oocyte
[8] = target: T1, Solute carrier family 22 member 1; experiment: TP_TRANSPORTER: inhibition of MPP+ uptake (MPP+: 0.85 uM, Thymidine: 5000 uM) in Xenopus laevis oocytes; assay type: functional, cell-based; details: oocyte
[9] = target: T1, Solute carrier family 22 member 1; experiment: TP_TRANSPORTER: inhibition of MPP+ uptake (MPP+: 0.85 uM, Quinidine: 1000 uM) in Xenopus laevis oocytes; assay type: functional, cell-based; details: oocyte
[10] = substrate: C[n+]1ccc(-c2ccccc2)cc1; experiment: TP_TRANSPORTER: uptake in Xenopus laevis oocytes; assay type: functional, cell-based, Oocyte

Molecule: CC[N+](CC)(CC)CC [TETRYLAMMONIUM]
- Ki [1]: 163 µM

Molecule: COc1ccc(CCN(C)CCCC(C#N)(c2ccc(OC)c(OC)c2)C(C)C)cc1OC (configuration not stated)
- Activity [2]: inhibitor [+]

Molecule: CC(=O)O[C@H]1C[C@@H]2CC[C@@H]3[C@H](CC[C@@]4(C)[C@H]3C[C@H]([N+]3(C)CCCCC3)[C@@H]4OC(C)=O)[C@@]2(C)C[C@@H]1[N+]1(C)CCCCC1 [PANCURONIUM]
- Activity [3]: inhibitor [+]

Molecule: CNC(=O)c1cccnc1 [NICOTINYL METHYLAMIDE]
- Activity [4]: inhibitor [+]

Molecule: C=C[C@H]1C[N@@]2CC[C@H]1C[C@H]2[C@H](O)c1ccnc2ccc(OC)cc12 [QUININE]
- Activity [5]: inhibitor [+]

Molecule: CCN(CC)CCNC(=O)c1ccc(N)cc1 [PROCAINAMIDE]
- Activity [6]: inhibitor [+]

Molecule: CCN1/C(=C/c2ccc3ccccc3[n+]2CC)C=Cc2ccccc21
- Ki [1]: 4.4 µM

Molecule: CC(=O)O[C@H]1C[C@@H]2CC[C@@H]3[C@H](CC[C@@]4(C)[C@H]3C[C@H]([N+]3(C)CCCCC3)[C@@H]4OC(C)=O)[C@@]2(C)C[C@@H]1N1CCCCC1 [VECURONIUM]
- Ki [1]: 120 µM

Molecule: OC[C@H]1O[C@@H](n2cnc3c(O)ncnc32)[C@H](O)[C@@H]1O [INOSINE]
- Activity [7]: inhibitor [+]

Molecule: Cc1cn([C@H]2C[C@H](O)[C@@H](CO)O2)c(=O)[nH]c1=O [DOXRIBTIMINE]
- Activity [8]: inhibitor [+]

Molecule: C=C[C@H]1C[N@@]2CC[C@H]1C[C@@H]2[C@@H](O)c1ccnc2ccc(OC)cc12 [QUINIDINE]
- Activity [9]: inhibitor [+]

B1: Solute carrier family 22 member 1 (Homo sapiens) (protein)
chain: T1 sequence (O15245 whole entry)
- Km [10]: 14.6 µM
